We go through three compounds from ChEMBL document CHEMBL1128890, “Synthesis and antifungal activities of optically active isomers of SM-8668” (1995).

In brackets after ≈: the same amount, converted by molar mass. A value given as a limit tells only on which side of the number the result lay.

As usually defined, the MIC is the lowest concentration found to suppress growth. High values mean weaker potency, low ones greater potency. For orientation: ED50 means the dose at which the effect has come halfway, by size or by number of responders. Read a low ED50 as an effect at a small dose.

What all share (format): functional
One experiment has as its system Candida albicans. Description: Minimum inhibitory concentration required for in vitro antifungal activity against Candida albicans KB-8 strain.
Experiment [1] concerns Mus musculus. Briefly: Effective dose against Aspergillus fumigatus MTU6001 strain after iv administration in murine.
Experiment [2] deals with Mus musculus. Description: Effective dose against Candida albicans KB-8 strain after iv administration in murine.
The test system of experiment [3] is Mus musculus. Briefly: Effective dose against Aspergillus fumigatus MTU6001 strain after po administration in murine.
In another experiment the test system is Aspergillus fumigatus. Description: Minimum inhibitory concentration required for in vitro antifungal activity against Aspergillus fumigatus MTU6001 strain.
For experiment [4], the system named is Mus musculus. Description: Effective dose against Candida albicans KB-8 strain after po administration in murine.

In the case of `C[C@@H]([C@@](O)(Cn1cncn1)c1ccc(F)cc1F)S(C)(=O)=O`, the minimal inhibitory concentration (MIC) against Candida albicans is 50 µg/mL (≈ 151 µM); with Aspergillus fumigatus it was greater than 800 µg/mL. Further, the ED50 with Mus musculus [1] was greater than 25 mg/kg; with Mus musculus [2] it was greater than 25 mg/kg; in the experiment on Mus musculus [3], greater than 125 mg/kg; in the experiment with Mus musculus [4], greater than 100 mg/kg.

`CC(C(O)(Cn1cncn1)c1ccc(F)cc1F)S(C)(=O)=O` (racemic): the minimum inhibitory concentration (MIC) with Candida albicans amounted to 0.2 µg/mL (≈ 0.604 µM); with Aspergillus fumigatus it was 12.5 µg/mL (≈ 37.7 µM). In addition, the ED50 with Mus musculus [3] came to 18 mg/kg; in the experiment on Mus musculus [4], 0.38 mg/kg.

Regarding `C[C@H]([C@](O)(Cn1cncn1)c1ccc(F)cc1F)S(C)(=O)=O` [GENACONAZOLE], the MIC is 0.1 µg/mL (≈ 0.302 µM) against Candida albicans and 6.25 µg/mL (≈ 18.9 µM) with Aspergillus fumigatus. Also, the 50% effective dose (ED50) was determined as 5.3 mg/kg in the experiment with Mus musculus [1], 0.26 mg/kg in the experiment on Mus musculus [2], 4.1 mg/kg in the experiment on Mus musculus [3] and 0.27 mg/kg with Mus musculus [4].
